Test results as given in article PMC9403987 (Frontiers in Oncology, 2022).

Key:
[1] = Excretion of radioactivity in intact rats; assay type: in vivo, Sprague Dawley rats
Description: (§1) To investigate the degree to which GLR2007 penetrated organs and tissues, and the levels of excretion of the compound, rats were dosed with radiolabeled GLR2007 and whole-body autoradiography was performed. Sprague Dawley rats (Vital River Laboratory Animal Technology Co., Beijing, China; N=38, female n=19; 8–11 weeks old) were maintained in humidity- and temperature-controlled conditions on a 12-hour light/dark cycle, with food (certified rat diet; Jiangsu Xietong Pharmaceutical Biological Engineering Co., Ltd, Jiangsu, China) and water available ad libitum. […] Urine, feces, and cage rinse/wash up to 168 hours after treatment were collected from six intact rats (three male, three female); bile, urine, feces, and cage rinse/wash up to 72 hours after treatment were collected from eight bile duct cannulated (BDC) rats (four male, four female). Heart, lung, liver, spleen, kidneys, whole brain, stomach tract wall, intestinal tract wall, skeletal muscle, body fat, reproductive organs (uterus and ovary for female rats, testis and epididymis for male rats) were collected at 2, 6, 24, and 72 hours after treatment (three male, three female per time point). The total radioactivity (TRA) of plasma, bile, urine, and cage rinse/wash samples was directly analyzed by liquid scintillation counting. Fecal and tissue homogenates and blood were combusted using a PerkinElmer Oxidizer (PerkinElmer Inc.), and the generated [^14C]CO2 was captured in ^14C scintillation cocktail (Shimadzu Corporation, Kyoto, Japan), followed by analysis using a PerkinElmer Liquid Scintillation Counter (PerkinElmer Inc.). The TRA levels determined in bile, urine, feces, and cage rinse/wash were used to calculate the percentage of the administered dose excreted. Mean TRA values of whole brain and plasma at 2, 6, 24, and 72 hours were used to calculate the area under concentration–time curve from time zero to 72 hours (AUC0–72), using a noncompartmental model in Phoenix WinNonlin v6.3 software (Certara, Princeton, NJ, USA).

[2] = Excretion of radioactivity in bile duct cannulated (BDC) rats; assay type: in vivo, Sprague Dawley rats
Description: as §1

P-glycoprotein = details: cited from earlier work
[3] = test system: breast cancer resistance protein (BCRP); details: cited from earlier work

## CC1=Nc2c(F)cc(-c3nc(Nc4ccc(C5CCN(C)CC5)cn4)ncc3F)cc2C12CCCC2 [GLR2007]
[1]; single oral 6 mg/100 μCi/kg
  Radioactivity excreted via feces: 84.10%
[1]; within 168 hours, single oral 6 mg/100 μCi/kg
  Dose recovered: 95.5%
[1]; within the first 48 hours
  Dose recovered: 74.3%
[2]; BDC rats, within 72 hours
  Dose recovered in bile: 33.3%
[2]; BDC rats, within 72 hours, single oral 6 mg/100 μCi/kg
  Dose recovered: 84.2%
[2]; based on excretion in bile and urine from BDC rats
  Dose predicted to be absorbed: at least 42.4%
P-glycoprotein
  Substrate of efflux transporter P-glycoprotein: not a substrate
[3]
  Substrate of efflux transporter BCRP: not a substrate
